Counter-ions that a name gives are not always drawn.
Tested on: not listed separately
Assay: Pharmacokinetic parameters in male Sprague Dawley rats (intravenous and oral administration)
Assay type: in vivo
Conditions: intravenous administration, rat plasma; dose per compound (mg/kg)
Protocol: Pharmacokinetic parameters were determined in male Sprague Dawley rats (Charles River, UK, 250-350 g; or Vital River Laboratory Animal Technology Co Ltd, Beijing, China, 7-9 weeks old). Animals were individually housed during the study and maintained under a 12 h light/dark cycle. Animals had free access to food and water except that some orally dosed animals were food deprived overnight prior to the study.
For intravenous administration, compounds were formulated as a solution in water or DMSO:PBS [10:90] in 2 mL/kg dosing volume and administered via tail vein. For oral administration, compounds were formulated as a solution in water or DMSO:water [10:90] in 5 mL/kg dosing volume and administered orally.
Serial blood samples (about 120-300 μL) were taken from each animal at each of 8 time-points post dose (0.083, 0.25, 0.5, 1, 2, 4, 8 and 24 h) or at each of 12 time-points post dose (0.03, 0.1, 0.17, 0.25, 0.5, 1, 2, 4, 6, 8,12 and 24 h) or pre-dose and at each of 9 time-points post dose (0.25, 0.5, 1, 2, 4, 6, 8, 12 and 24 h). Samples were held on ice for no longer than 30 minutes before centrifugation (10,000 rpm (8,385 g) for 3 minutes; or 5,696 rpm (3,000 g) for 15 minutes) for plasma generation. Plasma was frozen on dry ice prior to bioanalysis. PK parameters were generated from LC-MS/MS data using Dotmatics or Phoenix WinNonlin 6.3 software.

| AUC [ng·h/mL] | Cl [mL/min/kg] | T1/2 [h] | Vdss [L/kg] | SMILES |
| --- | --- | --- | --- | --- |
| 2710.4 | 10.5 | 3.8 | 1.23 | CCn1nc(S(=O)(=O)NC(=O)Nc2c(-c3ccnc(OC)c3)ccc3c2CCC3)cc1CN(C)C [Example 37, 5-((Dimethylamino)methyl)-1-ethyl-N-((5-(2-methoxypyridin-4-yl)-2,3-dihydro-1H-inden-4-yl)carbamoyl)-1H-pyrazole-3-sulfonamide] |
| 259.1 | 65.6 | 0.5 | 0.98 | Cc1cc(-c2cc(F)cc(C(C)C)c2NC(=O)NS(=O)(=O)c2cc(CN(C)C)n(C)n2)n(C)n1 [Example 60, N-((2-(1,3-Dimethyl-1H-pyrazol-5-yl)-4-fluoro-6-isopropylphenyl)carbamoyl)-5-((dimethylamino)methyl)-1-methyl-1H-pyrazole-3-sulfonamide] |
| 259.0 | 64.9 | 0.5 | 0.75 | CC(C)c1cc(F)cc(-c2cccnc2)c1NC(=O)NS(=O)(=O)c1cc(CN(C)C)n(C)n1 [Example 61, 5-((Dimethylamino)methyl)-N-((4-fluoro-2-isopropyl-6-(pyridin-3-yl)phenyl)carbamoyl)-1-methyl-1H-pyrazole-3-sulfonamide] |
| 375.4 | 51.5 | 1.2 | 1.14 | CC(C)c1cc(F)cc(-c2cccc(C#N)c2)c1NC(=O)NS(=O)(=O)c1cc(CN(C)C)n(C)n1 [Example 66, N-((3′-Cyano-5-fluoro-3-isopropyl-[1,1′-biphenyl]-2-yl)carbamoyl)-5-((dimethylamino)methyl)-1-methyl-1H-pyrazole-3-sulfonamide] |
| 247.8 | 67.2 | 0.3 | 1.32 | COc1cc(-c2cc(F)cc(C(C)C)c2NC(=O)NS(=O)(=O)c2cc(CN(C)C)n(C(C)C)n2)ccn1 [Example 67, 5-((Dimethylamino)methyl)-N-((4-fluoro-2-isopropyl-6-(2-methoxypyridin-4-yl)phenyl)carbamoyl)-1-isopropyl-1H-pyrazole-3-sulfonamide] |
| 356.0 | 47.6 | 0.5 | 0.8 | COc1cc(-c2cc(F)cc(C(C)C)c2NC(=O)NS(=O)(=O)c2cc(CN(C)C)n(C)n2)ccn1 [Example 68, 5-((Dimethylamino)methyl)-N-((4-fluoro-2-isopropyl-6-(2-methoxypyridin-4-yl)phenyl)carbamoyl)-1-methyl-1H-pyrazole-3-sulfonamide] |
| 182.5 | 91.3 | 2.3 | 2.72 | CC(C)c1cc(F)cc(C2CCOCC2)c1NC(=O)NS(=O)(=O)c1cc(C(=O)N(C)C)n(C)n1 [Example 133, 3-(N-((4-Fluoro-2-isopropyl-6-(tetrahydro-2H-pyran-4-yl)phenyl)carbamoyl)sulfamoyl)-N,N,1-trimethyl-1H-pyrazole-5-carboxamide, sodium salt] |
| 661.2 | 25.2 | 12.1 | 3.03 | CC(C)c1cc(F)cc(-c2cnn(C)c2)c1NC(=O)NS(=O)(=O)c1cc(C(=O)N(C)C)n(C)n1 [Example 135, 3-(N-((4-Fluoro-2-isopropyl-6-(1-methyl-1H-pyrazol-4-yl)phenyl)carbamoyl)sulfamoyl)-N,N,1-trimethyl-1H-pyrazole-5-carboxamide, sodium salt] |
| 274.4 | 60.7 | 6.3 | 3.95 | CC(C)c1cc(F)cc(-c2cccnc2)c1NC(=O)NS(=O)(=O)c1cc(C(=O)N(C)C)n(C)n1 [Example 141, 3-(N-((4-Fluoro-2-isopropyl-6-(pyridin-3-yl)phenyl)carbamoyl)sulfamoyl)-N,N,1-trimethyl-1H-pyrazole-5-carboxamide, sodium salt] |
| 353.3 | 160.9 | 1.3 | 10.55 | CC(C)c1cc(Cl)cc(C(C)C)c1NC(=O)NS(=O)(=O)c1cc(C(=O)N(C)C)n(C)n1 [Example 168, 3-(N-((4-Chloro-2,6-diisopropylphenyl)carbamoyl)sulfamoyl)-N,N,1-trimethyl-1H-pyrazole-5-carboxamide] |

Same assay, conditions: male, Sprague Dawley; oral administration, rat plasma; dose per compound (mg/kg)

| CL/F [mL/min/kg] | SMILES |
| --- | --- |
| 6 | CC(c1cc(S(=O)(=O)NC(=O)Nc2c3c(cc4c2CCC4)CCC3)nn1C)N(C)C (single isomer, unassigned; enantiomer 2) [Example 90, 5-(1-(Dimethylamino)ethyl)-N-((1,2,3,5,6,7-hexahydro-s-indacen-4-yl)carbamoyl)-1-methyl-1H-pyrazole-3-sulfonamide, Enantiomer 2] |

Same assay, conditions: male, Sprague Dawley; oral administration, rat plasma; dose per compound (mg/kg); read-out: Tmax

| Tmax [h] | SMILES |
| --- | --- |
| 0.5 | CC(c1cc(S(=O)(=O)NC(=O)Nc2c3c(cc4c2CCC4)CCC3)nn1C)N(C)C (single isomer, unassigned; enantiomer 2) [Example 90, 5-(1-(Dimethylamino)ethyl)-N-((1,2,3,5,6,7-hexahydro-s-indacen-4-yl)carbamoyl)-1-methyl-1H-pyrazole-3-sulfonamide, Enantiomer 2] |

Same assay, conditions: oral administration, rat plasma; dose per compound (mg/kg)

| AUC [ng·h/mL] | Cmax [ng/mL] | T1/2 [h] | SMILES |
| --- | --- | --- | --- |
| 11115.9 | 5665.0 | 1.1 | CC(c1cc(S(=O)(=O)NC(=O)Nc2c3c(cc4c2CCC4)CCC3)nn1C)N(C)C (single isomer, unassigned; enantiomer 2) [Example 90, 5-(1-(Dimethylamino)ethyl)-N-((1,2,3,5,6,7-hexahydro-s-indacen-4-yl)carbamoyl)-1-methyl-1H-pyrazole-3-sulfonamide, Enantiomer 2] |

Target: NLRP3 (Homo sapiens, UniProt Q96P20)
Assay: THP-1 cells pyroptosis assay
Assay type: cell-based
Design: Seed THP-1 cells (25,000 cells/well) containing 1.0 μg/ml LPS; host or cells: THP-1 cells, LPS-primed, nigericin-stimulated
Conditions: THP-1 cells, 1.0 μg/ml LPS, compound 3 hrs, nigericin 5 μM 1 hr, resazurin readout; read-out: THP IC50
Text: NLRP and Pyroptosis It is well established that the activation of NLRP3 leads to cell pyroptosis and this feature plays an important part in the manifestation of clinical disease (Yan-gang Liu et al., Cell Death &Disease, 2017, 8(2), e2579; Alexander Wree et al., Hepatology, 2014, 59(3), 898-910; Alex Baldwin et al., Journal of Medicinal Chemistry, 2016, 59(5), 1691-171; Ema Ozaki et al., Journal of Inflammation Research, 2015, 8, 15-27; Zhen Xie & Gang Zhao, Neuroimmunology Neuroinflammation, 2014, 1(2), 60-65; Mattia Cocco et al., Journal of Medicinal Chemistry, 2014, 57(24), 10366-10382; T. Satoh et al., Cell Death &Disease, 2013, 4, e644). Therefore, it is anticipated that inhibitors of NLRP3 will block pyroptosis, as well as the release of pro-inflammatory cytokines (e.g. […]) from the cell. THP-1 Cells: Culture and Preparation THP-1 cells (ATCC #TIB-202) were grown in RPMI containing L-glutamine (Gibco #11835) supplemented with imM sodium pyruvate (Sigma #S8636) and penicillin (100 units/ml)/streptomycin (0.1 mg/ml) (Sigma #P4333) in 10% Fetal Bovine Serum (FBS) (Sigma #Fo804). The cells were routinely passaged and grown to confluency (˜10^6 cells/ml). On the day of the experiment, THP-1 cells were harvested and resuspended into RPMI medium (without FBS). The cells were then counted and viability (>90%) checked by Trypan blue (Sigma #T8154). Appropriate dilutions were made to give a concentration of 625,000 cells/ml. To this diluted cell solution was added LPS (Sigma #L4524) to give a […] Final Assay Concentration (FAC). 40 μl of the final preparation was aliquoted into each well of a 96-well plate. The plate thus prepared was used for compound screening. THP-1 Cells Pyroptosis Assay The following method step-by-step assay was followed for compound screening. • 1. Seed THP-1 cells (25,000 cells/well) containing 1.0 μg/ml LPS in 40 μl of RPMI medium (without FBS) in 96-well, black walled, clear bottom cell culture plates coated with poly-D-lysine (VWR #734-0317) • 2. Add […] compound (8 points half-log dilution, with 10 μM top dose) or vehicle (DMSO 0.1% FAC) to the appropriate wells • 3. […] Add 5 μl nigericin (Sigma #N7143) (FAC 5 μM) to all wells • 5. […] At the end of the incubation period, spin plates at 300 xg for 3 mins and remove supernatant • 7. Then add 50 μl of resazurin (Sigma #R7017) (FAC 100μ M resazurin in RPMI medium without FBS) and incubate plates for a further 1-2 hrs at 37° C. and 5% CO2 • 8. Plates were read in an Envision reader at Ex 560 nm and Em 590 nm • 9. IC50 data is fitted to a non-linear regression equation (log inhibitor vs response-variable slope 4-parameters) [table]

NLRP3, sequence (Q96P20 whole entry): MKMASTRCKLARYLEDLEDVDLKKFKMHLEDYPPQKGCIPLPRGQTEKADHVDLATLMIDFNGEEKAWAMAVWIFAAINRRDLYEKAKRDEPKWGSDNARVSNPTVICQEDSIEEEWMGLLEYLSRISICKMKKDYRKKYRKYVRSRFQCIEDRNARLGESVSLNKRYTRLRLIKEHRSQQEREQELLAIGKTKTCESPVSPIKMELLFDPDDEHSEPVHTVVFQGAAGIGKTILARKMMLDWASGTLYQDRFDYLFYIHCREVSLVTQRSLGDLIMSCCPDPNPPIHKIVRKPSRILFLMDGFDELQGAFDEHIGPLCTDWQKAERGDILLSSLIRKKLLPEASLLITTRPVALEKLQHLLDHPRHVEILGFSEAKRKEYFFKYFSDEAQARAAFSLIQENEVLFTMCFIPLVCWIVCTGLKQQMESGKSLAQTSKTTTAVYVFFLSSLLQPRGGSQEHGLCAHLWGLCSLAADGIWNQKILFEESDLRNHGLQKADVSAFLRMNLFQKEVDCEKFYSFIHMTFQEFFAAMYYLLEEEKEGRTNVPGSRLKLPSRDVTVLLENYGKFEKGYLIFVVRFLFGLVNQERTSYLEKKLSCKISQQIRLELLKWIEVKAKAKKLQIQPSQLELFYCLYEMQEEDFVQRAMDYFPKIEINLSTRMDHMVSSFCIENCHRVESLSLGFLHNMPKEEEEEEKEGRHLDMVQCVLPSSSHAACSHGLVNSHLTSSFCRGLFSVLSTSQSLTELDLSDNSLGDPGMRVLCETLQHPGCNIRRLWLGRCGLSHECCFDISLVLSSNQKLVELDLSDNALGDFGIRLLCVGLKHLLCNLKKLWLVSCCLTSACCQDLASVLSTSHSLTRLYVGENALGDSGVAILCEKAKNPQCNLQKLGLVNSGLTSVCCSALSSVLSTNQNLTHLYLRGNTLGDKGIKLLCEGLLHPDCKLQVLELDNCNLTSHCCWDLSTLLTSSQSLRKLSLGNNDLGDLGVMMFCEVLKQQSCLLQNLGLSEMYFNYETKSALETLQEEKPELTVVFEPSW

| IC50 [nM] | SMILES |
| --- | --- |
| < 160 | CC(c1cc(S(=O)(=O)NC(=O)Nc2c3c(cc4c2CCC4)CCC3)nn1C)N1CCC1 (single isomer, unassigned) [Example 46, 5-(1-(Azetidin-1-yl)ethyl)-N-((1,2,3,5,6,7-hexahydro-s-indacen-4-yl)carbamoyl)-1-methyl-1H-pyrazole-3-sulfonamide, sodium salt] |
| < 160 | CC(c1cc(S(=O)(=O)NC(=O)Nc2c3c(cc4c2CCC4)CCC3)nn1C)N1CCC1 (single isomer, unassigned) [Example 47, 5-(1-(Azetidin-1-yl)ethyl)-N-((1,2,3,5,6,7-hexahydro-s-indacen-4-yl)carbamoyl)-1-methyl-1H-pyrazole-3-sulfonamide, sodium salt] |
| < 2560 | CC(=O)N1CC(n2ccc(S(=O)(=O)NC(=O)Nc3c4c(cc5c3CCC5)CCC4)n2)C1 [Example 4, 1-(1-Acetylazetidin-3-yl)-N-((1,2,3,5,6,7-hexahydro-s-indacen-4-yl)carbamoyl)-1H-pyrazole-3-sulfonamide] |
| < 10000 | CN1CCn2nc(S(=O)(=O)NC(=O)Nc3c4c(cc5c3CCC5)CCC4)cc2C1=O [Example 5, N-((1,2,3,5,6,7-Hexahydro-s-indacen-4-yl)carbamoyl)-5-methyl-4-oxo-4,5,6,7-tetrahydropyrazolo[1,5-a]pyrazine-2-sulfonamide, sodium salt] |
| < 10000 | CC(C)c1cc(F)cc(C(C)C)c1NC(=O)NS(=O)(=O)c1ccn(CCN(C)C)n1 [Example 16, 1-(2-(Dimethylamino)ethyl)-N-((4-fluoro-2,6-diisopropyl-phenyl)carbamoyl)-1H-pyrazole-3-sulfonamide] |

Reference: patent publication US11613542B2, “Sulfonylureas and sulfonylthioureas as NLRP3 inhibitors” (Inflazome Limited, priority 2017, dated 2023)
